# Laboratory results reported in US11224234B2, “Functional chocolate” (IMMD SP. Z.O.O., priority 2016, dated 2022).
# Assay: Pharmacokinetics of trans-Resveratrol in human serum, crossover clinical study
# Assay type: in vivo
# Settings: single ingestion
# Description: This was a crossover clinical study on 6 volunteers of 35-65 years old, 3 women and 3 men. It was a multi-arm trial with one-week interval between each arm. Prior to every experiment volunteers were asked not to consume food, which may contain fruit, vegetable or grain polyphenols and tomato-based products. In the morning of the experiment volunteers were asked to abstain from any food and drink only water. The serum of the vein blood was analysed. […] Firstly, a sample was collected before ingesting of a product, then every hour for 4 hours after ingestion. To assess the pharmacokinetics (PK) of t-RSV of our dark and milk chocolate with embedded bilberry and aronia extracts, we undertook a crossover clinical study with the same group of volunteers. On top of these we added into this crossover study a few more groups with Nutella spread where chocolate is only a small ingredient. The design of the study and the sample collection was the same as in the glucose postprandial study described above.
smiles,measurement,value
"Oc1ccc(/C=C/c2cc(O)cc(O)c2)cc1 [t-RSV capsule, trans-Resveratrol]",t-RSV AUC 0-4 hours,105 to 380 ng/mL
same,t-RSV Max,100 to 207 ng/mL
